{"source": "the NIST ThermoML archive (doi:10.1016/j.jct.2010.04.003)", "settings": "101.33 kPa, Liquid, Buoyancy - hydrostatic balance with magnetic suspension - one sinker", "note": "± gives the expanded uncertainty stated by the source.", "data": [{"smiles": "CN(C)P(=O)(N(C)C)N(C)C", "note": "[tris(dimethylamino)phosphine oxide]", "values": [{"measurement": "mass density", "setting": "288.15 K", "value": "1028.54 ± 0.33", "unit": "kg/m3"}, {"measurement": "mass density", "setting": "293.15 K", "value": "1024.33 ± 0.33", "unit": "kg/m3"}, {"measurement": "mass density", "setting": "298.15 K", "value": "1020.03 ± 0.33", "unit": "kg/m3"}, {"measurement": "mass density", "setting": "303.15 K", "value": "1015.86 ± 0.32", "unit": "kg/m3"}, {"measurement": "mass density", "setting": "308.15 K", "value": "1011.61 ± 0.32", "unit": "kg/m3"}]}]}
